Measurements from patent publication US7405205B2, “Antitumor antisense sequences directed against R1 and R2 components of ribonucleotide reductase” (Lorus Therapeutics Inc., priority 1996, dated 2008).
Strand notation (5' to 3'): a small letter for the sugar, then the base; units joined by * are phosphorothioate-linked, units joined directly phosphodiester-linked; [ ] holds rarer units or linkages, { } end groups; capitals alone tell only the bases. d = 2'-deoxy (DNA)

system: T24 bladder cell carcinoma; test: Relative colony forming efficiency after antisense treatment (Table 13); assay type: cell-based, human; settings: 0.2 μM antisense oligodeoxyribonucleotide phosphorothioate; T24 cells; averages of 2-8 determinations

| Sequence | Reduced relative colony forming efficiency, expressed as % inhibition, T24 [%] |
| --- | --- |
| TTCTGGCAAAAGGTGATACT (DNA, all phosphorothioate, methylation of C not given here) [AS-II-1538-20] | 67.29 |
| AGCCTCTGCCTTCTTATACA (dA*dG*dC*dC*dT*dC*dT*dG*dC*dC*dT*dT*dC*dT*dT*dA*dT*dA*dC*dA; antisense) [AS-II-472-20] | 69.26 |
| ATGGTACTCGATGGGGAAGA (dA*dT*dG*dG*dT*dA*dC*dT*dC*dG*dA*dT*dG*dG*dG*dG*dA*dA*dG*dA) [AS-II-439-20] | 67.84 |
| AAGCGGCGGGGGTTTTCTCT (dA*dA*dG*dC*dG*dG*dC*dG*dG*dG*dG*dG*dT*dT*dT*dT*dC*dT*dC*dT; antisense) [AS-II-414-20] | 11.67 |
| GAAGTCAGCATCCAAGGTAA (DNA, all phosphorothioate, methylation of C not given here) [AS-II-1342-20] | 59.76 |
| CAAATGGGTTCTCTACTCTG (DNA, all phosphorothioate, methylation of C not given here) [AS-II-1217-20] | 66.36 |
| CCTCTGATACTCGCCTACTC (DNA, all phosphorothioate, methylation of C not given here) [AS-II-1288-20] | 56.75 |
| GCGGCGGGGGTTTTCTCTCA (dG*dC*dG*dG*dC*dG*dG*dG*dG*dG*dT*dT*dT*dT*dC*dT*dC*dT*dC*dA; antisense) [AS-II-412-20] | 22.2 |
| TCAGCATCCAAGGTAAAAGA (DNA, all phosphorothioate, methylation of C not given here) [AS-II-1338-20] | 63.16 |

system: HCT116 colon cell carcinoma; test: as above; assay type: cell-based, human; settings: 0.2 μM antisense oligodeoxyribonucleotide phosphorothioate; HCT116 cells; averages of 2-8 determinations

| Sequence | Reduced relative colony forming efficiency, expressed as % inhibition, HCT116 [%] |
| --- | --- |
| TTCTGGCAAAAGGTGATACT (DNA, all phosphorothioate, methylation of C not given here) [AS-II-1538-20] | 51.28 |
| AGCCTCTGCCTTCTTATACA (dA*dG*dC*dC*dT*dC*dT*dG*dC*dC*dT*dT*dC*dT*dT*dA*dT*dA*dC*dA; antisense) [AS-II-472-20] | 67.23 |
| ATGGTACTCGATGGGGAAGA (dA*dT*dG*dG*dT*dA*dC*dT*dC*dG*dA*dT*dG*dG*dG*dG*dA*dA*dG*dA) [AS-II-439-20] | 64.7 |
| AAGCGGCGGGGGTTTTCTCT (dA*dA*dG*dC*dG*dG*dC*dG*dG*dG*dG*dG*dT*dT*dT*dT*dC*dT*dC*dT; antisense) [AS-II-414-20] | 19.1 |
| GAAGTCAGCATCCAAGGTAA (DNA, all phosphorothioate, methylation of C not given here) [AS-II-1342-20] | 73.74 |
| CAAATGGGTTCTCTACTCTG (DNA, all phosphorothioate, methylation of C not given here) [AS-II-1217-20] | 68.68 |
| CCTCTGATACTCGCCTACTC (DNA, all phosphorothioate, methylation of C not given here) [AS-II-1288-20] | 66.43 |
| GCGGCGGGGGTTTTCTCTCA (dG*dC*dG*dG*dC*dG*dG*dG*dG*dG*dT*dT*dT*dT*dC*dT*dC*dT*dC*dA; antisense) [AS-II-412-20] | 27.98 |
| TCAGCATCCAAGGTAAAAGA (DNA, all phosphorothioate, methylation of C not given here) [AS-II-1338-20] | 74.73 |

system: A549 lung cell carcinoma; test: as above; assay type: cell-based, human; settings: 0.2 μM antisense oligodeoxyribonucleotide phosphorothioate; A549 cells; averages of 2-8 determinations

| Sequence | Reduced relative colony forming efficiency, expressed as % inhibition, A549 [%] |
| --- | --- |
| TTCTGGCAAAAGGTGATACT (DNA, all phosphorothioate, methylation of C not given here) [AS-II-1538-20] | 90.34 |
| AGCCTCTGCCTTCTTATACA (dA*dG*dC*dC*dT*dC*dT*dG*dC*dC*dT*dT*dC*dT*dT*dA*dT*dA*dC*dA; antisense) [AS-II-472-20] | 96.99 |
| ATGGTACTCGATGGGGAAGA (dA*dT*dG*dG*dT*dA*dC*dT*dC*dG*dA*dT*dG*dG*dG*dG*dA*dA*dG*dA) [AS-II-439-20] | 76.46 |
| AAGCGGCGGGGGTTTTCTCT (dA*dA*dG*dC*dG*dG*dC*dG*dG*dG*dG*dG*dT*dT*dT*dT*dC*dT*dC*dT; antisense) [AS-II-414-20] | 12.44 |
| GAAGTCAGCATCCAAGGTAA (DNA, all phosphorothioate, methylation of C not given here) [AS-II-1342-20] | 65.67 |
| CAAATGGGTTCTCTACTCTG (DNA, all phosphorothioate, methylation of C not given here) [AS-II-1217-20] | 91.49 |
| CCTCTGATACTCGCCTACTC (DNA, all phosphorothioate, methylation of C not given here) [AS-II-1288-20] | 61.04 |
| GCGGCGGGGGTTTTCTCTCA (dG*dC*dG*dG*dC*dG*dG*dG*dG*dG*dT*dT*dT*dT*dC*dT*dC*dT*dC*dA; antisense) [AS-II-412-20] | 43.78 |
| TCAGCATCCAAGGTAAAAGA (DNA, all phosphorothioate, methylation of C not given here) [AS-II-1338-20] | 63.93 |

system: MIA PaCa-2 pancreatic cell carcinoma; test: as above; assay type: cell-based, human; settings: 0.2 μM antisense oligodeoxyribonucleotide phosphorothioate; MIA PaCa-2 cells; averages of 2-8 determinations

| Sequence | Reduced relative colony forming efficiency, expressed as % inhibition, MIA PaCa-2 [%] |
| --- | --- |
| TTCTGGCAAAAGGTGATACT (DNA, all phosphorothioate, methylation of C not given here) [AS-II-1538-20] | 50.62 |
| AGCCTCTGCCTTCTTATACA (dA*dG*dC*dC*dT*dC*dT*dG*dC*dC*dT*dT*dC*dT*dT*dA*dT*dA*dC*dA; antisense) [AS-II-472-20] | 97.13 |
| ATGGTACTCGATGGGGAAGA (dA*dT*dG*dG*dT*dA*dC*dT*dC*dG*dA*dT*dG*dG*dG*dG*dA*dA*dG*dA) [AS-II-439-20] | 92.69 |
| AAGCGGCGGGGGTTTTCTCT (dA*dA*dG*dC*dG*dG*dC*dG*dG*dG*dG*dG*dT*dT*dT*dT*dC*dT*dC*dT; antisense) [AS-II-414-20] | 36.11 |
| GAAGTCAGCATCCAAGGTAA (DNA, all phosphorothioate, methylation of C not given here) [AS-II-1342-20] | 73.77 |
| CAAATGGGTTCTCTACTCTG (DNA, all phosphorothioate, methylation of C not given here) [AS-II-1217-20] | 34.85 |
| CCTCTGATACTCGCCTACTC (DNA, all phosphorothioate, methylation of C not given here) [AS-II-1288-20] | 80.71 |
| GCGGCGGGGGTTTTCTCTCA (dG*dC*dG*dG*dC*dG*dG*dG*dG*dG*dT*dT*dT*dT*dC*dT*dC*dT*dC*dA; antisense) [AS-II-412-20] | 55.25 |
| TCAGCATCCAAGGTAAAAGA (DNA, all phosphorothioate, methylation of C not given here) [AS-II-1338-20] | 79.17 |

system: PC-3 prostrate cell adenocarcinoma; test: as above; assay type: cell-based, human; settings: 0.2 μM antisense oligodeoxyribonucleotide phosphorothioate; PC-3 cells; averages of 2-8 determinations

| Sequence | Reduced relative colony forming efficiency, expressed as % inhibition, PC-3 [%] |
| --- | --- |
| TTCTGGCAAAAGGTGATACT (DNA, all phosphorothioate, methylation of C not given here) [AS-II-1538-20] | 84.71 |
| AGCCTCTGCCTTCTTATACA (dA*dG*dC*dC*dT*dC*dT*dG*dC*dC*dT*dT*dC*dT*dT*dA*dT*dA*dC*dA; antisense) [AS-II-472-20] | 90.7 |
| ATGGTACTCGATGGGGAAGA (dA*dT*dG*dG*dT*dA*dC*dT*dC*dG*dA*dT*dG*dG*dG*dG*dA*dA*dG*dA) [AS-II-439-20] | 77.66 |
| AAGCGGCGGGGGTTTTCTCT (dA*dA*dG*dC*dG*dG*dC*dG*dG*dG*dG*dG*dT*dT*dT*dT*dC*dT*dC*dT; antisense) [AS-II-414-20] | 60.94 |
| GAAGTCAGCATCCAAGGTAA (DNA, all phosphorothioate, methylation of C not given here) [AS-II-1342-20] | 89.84 |
| CAAATGGGTTCTCTACTCTG (DNA, all phosphorothioate, methylation of C not given here) [AS-II-1217-20] | 81.03 |
| CCTCTGATACTCGCCTACTC (DNA, all phosphorothioate, methylation of C not given here) [AS-II-1288-20] | 93.55 |
| GCGGCGGGGGTTTTCTCTCA (dG*dC*dG*dG*dC*dG*dG*dG*dG*dG*dT*dT*dT*dT*dC*dT*dC*dT*dC*dA; antisense) [AS-II-412-20] | 73.96 |
| TCAGCATCCAAGGTAAAAGA (DNA, all phosphorothioate, methylation of C not given here) [AS-II-1338-20] | 93.75 |

system: HepG2 hepatocellular carcinoma; test: Relative colony forming efficiency after antisense treatment (Table 13, FIG. 12); assay type: cell-based, human; settings: 0.2 μM antisense oligodeoxyribonucleotide phosphorothioate; HepG2 cells; averages of 2-8 determinations

| Sequence | Reduced relative colony forming efficiency, expressed as % inhibition, HepG2 [%] |
| --- | --- |
| TTCTGGCAAAAGGTGATACT (DNA, all phosphorothioate, methylation of C not given here) [AS-II-1538-20] | 96.84 |
| ATGGTACTCGATGGGGAAGA (dA*dT*dG*dG*dT*dA*dC*dT*dC*dG*dA*dT*dG*dG*dG*dG*dA*dA*dG*dA) [AS-II-439-20] | 73.04 |
| AAGCGGCGGGGGTTTTCTCT (dA*dA*dG*dC*dG*dG*dC*dG*dG*dG*dG*dG*dT*dT*dT*dT*dC*dT*dC*dT; antisense) [AS-II-414-20] | 30.89 |
| GAAGTCAGCATCCAAGGTAA (DNA, all phosphorothioate, methylation of C not given here) [AS-II-1342-20] | 82.2 |
| CCTCTGATACTCGCCTACTC (DNA, all phosphorothioate, methylation of C not given here) [AS-II-1288-20] | 80.41 |
| GCGGCGGGGGTTTTCTCTCA (dG*dC*dG*dG*dC*dG*dG*dG*dG*dG*dT*dT*dT*dT*dC*dT*dC*dT*dC*dA; antisense) [AS-II-412-20] | 26.23 |
| TCAGCATCCAAGGTAAAAGA (DNA, all phosphorothioate, methylation of C not given here) [AS-II-1338-20] | 80.41 |
